Measured values: US6670379B2, “Piperidine compounds for use as ccr-3 inhibitors” (Novartis AG, priority 2000, dated 2003)

Columns and labels:
[1] = biological target: T1, human CCR-3 (Homo sapiens, UniProt P51677); test: CCR-3 Binding Assay (SPA, [125I]-human eotaxin); conditions: membranes of RBL-2H3 cells stably expressing CCR3; 50 pM [125I]-human eotaxin; 4 hours at room temperature; read-out: IC50 (inhibition of binding of human eotaxin to human CCR-3)
T1 construct: expressed in transfected cells; host or cells: rat basophil leukemia (RBL-2H3) cells
T1 sequence (P51677 1-355): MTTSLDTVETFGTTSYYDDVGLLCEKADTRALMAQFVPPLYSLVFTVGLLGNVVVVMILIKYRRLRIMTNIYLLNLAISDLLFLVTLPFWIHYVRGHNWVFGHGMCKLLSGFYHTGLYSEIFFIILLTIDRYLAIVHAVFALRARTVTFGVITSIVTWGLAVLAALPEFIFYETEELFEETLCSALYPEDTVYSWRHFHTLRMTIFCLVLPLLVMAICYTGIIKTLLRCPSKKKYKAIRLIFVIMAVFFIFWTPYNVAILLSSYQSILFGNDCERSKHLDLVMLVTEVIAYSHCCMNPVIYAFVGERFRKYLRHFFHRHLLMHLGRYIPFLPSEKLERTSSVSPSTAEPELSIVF
Procedure: In this assay the effect of agents of the invention on the binding of human eotaxin to human CCR-3 is determined. Recombinant cells expressing human CCR-3 are captured by wheatgerm agglutinin (WGA) polyvinyltoluidene (PVT) SPA beads (available from Amersham), through a specific interaction between the WGA and carbohydrate residues of glycoproteins on the surface of the cells. [^125I]-human eotaxin (available from Amersham) binds specifically to CCR-3 receptors bringing the [^125I]-human eotaxin in close proximity to the SPA beads. Emitted â-particles from the [^125I]-human eotaxin excite, by its proximity, the fluorophore in the beads and produce light.
Preparation of Assay Buffer: 5.96 g HEPES and 7.0 g sodium chloride are dissolved in distilled water and 1M aqueous CaCl2 (1 mL) and 1M aqueous MgCl2 (5 mL) are added. The pH is adjusted to 7.6 with NaOH and the solution made to a final volume of 1 L using distilled water. 5 g bovine serum albumin and 0.1 g sodium azide are then dissolved in the solution and the resulting buffer stored at 4° C. A Complete™ protease inhibitor cocktail tablet (available from Boehringer) is added per 50 mL of the buffer on the day of use.
Preparation of Homogenisation Buffer: Tris-base (2.42 g) is dissolved in distilled water, the pH of the solution is adjusted to 7.6 with hydrochloric acid and the solution is diluted with distilled water to a final volume of 1L. The resulting buffer is stored at 4° C. A Complete™ protease inhibitor cocktail tablet is added per 50 mL of the buffer on the day of use.
Preparation of membranes: Confluent rat basophil leukemia (RBL-2H3) cells stably expressing CCR3 are removed from tissue culture flasks using enzyme-free cell dissociation buffer and resuspended in phosphate-buffered saline. The cells are centrifuged (800 g, 5 minutes), the pellet resuspended in ice-cold homogenisation buffer using 1 mL homogenisation buffer per gram of cells and incubated on ice for 30 minutes. The cells are homogenised on ice with 10 strokes in a glass mortar and pestle. The homogenate is centrifuged (800 g, 5 minutes, 4° C.), the supernatant further centrifuged (48,000 g, 30 minutes, 4° C.) and the pellet redissolved in Homogenisation Buffer containing 10% (v/v) glycerol. The protein content of the membrane preparation is estimated by the method of Bradford (Anal.Biochem. (1976) 72:248) and aliquots are snap frozen and stored at −80° C. The assay is performed in a final volume of 250 μL per well of an Optiplate (ex Canberra Packard). To selected wells of the Optiplate are added 50 μL of solutions of a test compound in Assay Buffer containing 5% DMSO (concentrations from 0.1 nM to 10 μM). To determine total binding, 50 μL of the Assay Buffer containing 5% DMSO is added to other selected wells. To determine non-specific binding, 50 μL of 100 nM human eotaxin (ex R&D Systems) in Assay Buffer containing 5% DMSO is added to further selected wells. To all wells are added 50 μL [^125I]-Human eotaxin (ex Amersham) in Assay Buffer containing 5% DMSO at a concentration of 250 pM (to give a final concentration of 50 pM per well), 50 μL of WGA-PVT SPA beads in Assay Buffer (to give a final concentration of 1.0 mg beads per well) and 100 μL of the membrane preparation at a concentration of 100 μg protein in Assay Buffer (to give a final concentration of 10 μg protein per well). The plate is then incubated for 4 hours at room temperature. The plate is sealed using TopSeal-S (ex Canberra Packard) according to the manufacturer's instructions. The resulting scintillations are counted using a Canberra Packard TopCount, each well being counted for 1 minute. The concentration of test compound at which 50% inhibition occurs (IC50) is determined from concentration-inhibition curves in a conventional manner.

[2] = biological target: alpha-1 adrenergic receptor; test: alpha-1 adrenergic receptor radioligand binding assay ([125I]-HEAT, rat cerebral cortex membranes); conditions: for IC50: [125I]-HEAT 40 pM, 37° C. for 60 min, read-out: IC50 (inhibition of binding of the alpha-1 adrenergic receptor)
Procedure: Cerebral cortices from male Sprague-Dawley rats (175-200 g) are dissected and homogenised in 10 volumes of ice cold 0.32 M sucrose (containing 1 mM MgCl2 dihydrate and 1 mM K2HPO4) with a glass/teflon homogeniser. The membranes are centrifuged at 1000×g for 15 min., the pellet discarded and the centrifugation repeated. The supernatants are pooled and centrifuged at 18,000×g for 15 min. The pellet is osmotically shocked in 10 volumes of water and kept on ice for 30 min. The suspension is centrifuged at 39,000×g for 20 min., resuspended in Krebs-Henseleit buffer pH 7.4 (1.17 mM MgSO4 anhydrous, 4.69 mM KCl, 0.7 mM K2HPO4 anhydrous, 0.11M NaCl, 11 mM D-glucose and 25 mM NaHCO3) containing 20 mM Tris, and kept for 2 days at −20° C. The membranes are then thawed at 20-23° C., washed three times with Krebs-Henseleit buffer by centrifugation at 18,000×g for 15 min., left overnight at 4° C. and washed again three times. The final pellet is resuspended with a glass/teflon homogeniser in 125 mL/100 membranes in the same buffer. A sample is taken to determine the protein concentration (using the Bradford Assay with gamma globulin as the standard) and the remainder aliquoted and stored at −80° C.
The resulting membranes are subjected to a radioligand binding assay. […] The plates are incubated at 37° C. for 60 min., after which rapid vacuum filtration over Whatman GF/C 96 well filter plates is carried out. Each plate is then washed three times with 10 ml of ice cold assay buffer using a Brandel Cell harvester (Gaithersburg, Md.). Following drying of the plates for 3 h. at 50° C., 40 μL of Microscint 20 is added to each well, the plates incubated at room temperature for a further 20 min. and the retained radioactivity quantified in a Packard Topcount NXT scintillation counter.
Stock solutions of test compounds are dissolved initially in 100% DMSO and diluted with assay buffer to the required concentrations to yield 1% (v/v) DMSO.

IC50 [1] | IC50 [2] | melting point | Kd [2] | Compound
125 nM | 210 nM | – | – | N#Cc1cccc(/C=C/C(=O)NCCN2CCC(C(=O)c3ccc(F)cc3)CC2)c1 [Example 1]
68 nM | 221 nM | – | – | N#Cc1cccc(/C=C/C(=O)N[C@H](Cc2ccccc2)CN2CCC(C(=O)c3ccc(F)cc3)CC2)c1 [Example 2, (E)-N-{(R)-1-Benzyl-2-[4-(4-fluoro-benzoyl)-piperidin-1-yl]-ethyl}-3-(3-cyano-phenyl)-acrylamide]
13 nM | 94 nM | – | – | CCOc1ccc(Br)cc1/C=C/C(=O)N[C@H](Cc1ccccc1)CN1CCC(C(=O)c2ccc(F)cc2)CC1 [Example 4]
15 nM | 48 nM | – | – | COc1ccc(Br)cc1/C=C/C(=O)NCCN1CCC(C(=O)c2ccc(F)cc2)CC1 [Example 7]
5 nM | 58 nM | – | – | COc1ccc(Br)cc1/C=C/C(=O)N[C@H](Cc1cccnc1)CN1CCC(C(=O)c2ccc(F)cc2)CC1 [Example 9]
26 nM | 53 nM | – | – | COc1ccc(Br)cc1/C=C/C(=O)NCCN1CCC(C(=O)c2ccc(Cl)cc2)CC1 [Example 13, (E)-3-(5-Bromo-2-methoxy-phenyl)-N-{2-[4-(4-chloro-benzoyl)-piperidin-1-yl]-ethyl}-acrylamide]
8 nM | 89 nM | – | – | CC(C)Oc1ccc(Br)cc1/C=C/C(=O)NCCN1CCC(C(=O)c2ccc(F)cc2)CC1 [Example 20]
10 nM | 131 nM | – | – | N#Cc1cccc(/C=C/C(=O)N[C@H](Cc2ccco2)CN2CCC(C(=O)c3ccc(F)cc3)CC2)c1 [Example 23]
11 nM | 387 nM | – | – | COc1ccc(Br)cc1/C=C/C(=O)N[C@H](CO)CN1CCC(C(=O)c2ccc(F)cc2)CC1 [Example 25]
2 nM | 72 nM | – | – | COc1ccc(C#N)cc1/C=C/C(=O)N[C@H](Cc1ccco1)CN1CCC(C(=O)c2ccc(F)cc2)CC1 [Example 28]
13 nM | 121 nM | – | – | COc1ccc(C#N)cc1/C=C/C(=O)N[C@H](Cc1cnc[nH]1)CN1CCC(C(=O)c2ccc(F)cc2)CC1 [Example 30]
14 nM | 1520 nM | – | – | COc1ccc(C#N)cc1/C=C/C(=O)N[C@H](CO)CN1CCC(C(=O)c2ccc(Cl)cc2)CC1 [Example 38, (E)-N-{(S)-2-[4-(4-chloro-benzoyl)-piperidin-1-yl]-1-hydroxymethyl-ethyl}-3-(5-cyano-2-methoxy-phenyl)-acrylamide]
6 nM | 215 nM | – | – | COc1ccc(Cl)cc1/C=C/C(=O)N[C@H](CO)CN1CCC(C(=O)c2ccc(Cl)cc2)CC1 [Example 40]
22 nM | 356 nM | – | – | COc1ccc(Br)cc1/C=C/C(=O)N[C@H](CO)CN1CCC(C(=O)c2ccc(Cl)cc2)CC1 [Example 43]
25 nM | 331 nM | – | – | COc1ccc(C#N)cc1/C=C/C(=O)N[C@H](Cc1ccncc1)CN1CCC(C(=O)c2ccc(F)cc2)CC1 [Example 44]
– | – | 162 to 163 °C | – | COc1ccc(C#N)cc1/C=C/C(=O)N[C@H](CO)CN1CCC(C(=O)c2ccc(Cl)cc2)CC1 [Example 47, (E)-N-{(S)-1-[4-(4-Chloro-benzoyl)-piperidin-1-ylmethyl]-2-hydroxy-ethyl}-3-(5-cyano-2-methoxy-phenyl)-acrylamide]
– | – | – | 0.0589 ± 0.0187 nM | O=C1c2ccccc2CCC1CNCCc1ccc(O)c(I)c1 (centres unmarked) [[^125I]-HEAT, reference compound]
